# Results as given in patent publication US20150037375A1, “DOPING AGENTS AND POLYMERIC COMPOSITIONS THEREOF FOR CONTROLLED DRUG DELIVERY” (TRUSTEES OF BOSTON UNIVERSITY ET AL, priority 2011, published 2015).
# Legend:
# [1] = test system: HT-29 colorectal cancer cells; assay: In vitro cytotoxicity (MTS/MTT) of drug-loaded meshes, HT-29 cells
# Method: (§1) The meshes contained either 0.01, 0.1, or 1.0 w/w % drug (SN38 or CPT-11). The camptothecin release from these meshes was tested using a cell viability assay following 24 hour treatments with camptothecin-loaded or unloaded meshes. […] Individual camptothecin-loaded and unloaded meshes were placed in permeable filter supports (Polyester membrane insert, 3.0 μm pore size; Corning Incorporated, Corning, N.Y.) and maintained in SPM. Medium was changed periodically to ensure continued drug release. […] At designated time points, subconfluent cells were harvested and seeded on 12-well plates at 30,000 cells/well in SPM. After 24 hours, filter supports and meshes were transferred from holding wells to the wells containing tumor cells in 2 mL of fresh SPM. After 24 hours of co-incubation with tumor cells, films were returned to holding wells in fresh SPM until the subsequent time point. Five days after treatment, tumor cell viability was measured using a colorimetric MTT (3-(4,5-dimethyl-2-thiazolyl)-2,5-diphenyltetrazolium bromide) cell proliferation assay (Sigma, St. Louis, Mo.). Cell viability was calculated as the percentage of the positive control absorbance for each cell line at each time point.
# [2] = Lactone form of SN-38 released from meshes; conditions: control, bolus of SN-38 added to pH 6.4 PBS for an hour
# Method: An additional release study was performed to determine if the active form of SN-38 was preserved within electrospun meshes.
# [3] = test system: Lewis Lung Carcinoma (LLC) cells; assay: Cell viability (MTT) after 24 hour treatments with drug-loaded meshes, LLC cells
# Method: as §1
structure (smiles),measurement,setting,value
"CCc1c2c(nc3ccc(O)cc13)-c1cc3c(c(=O)n1C2)COC(=O)[C@]3(O)CC [SN-38, 7-ethyl-10-hydroxycamptothecin]",IC50,[1],3.4 ng/mL
same,SN-38 remaining in the active lactone form,[2],73%
same,IC-50,[3],≈ 8 ng/mL
